Values of other authors in EP0280593B1, “Composition on the basis of an amino-acid and vitamins for use in cancer therapy” (Rougereau, André, priority 1987, dated 1988).

How the values were obtained:
[1] = system: souris; details: par voie orale chez la souris
[2] = system: rat; details: par voie orale chez le rat

## NCCC(=O)O [β-alanine]
[1]
  dose léthale DL₅₀: > 10 g/kg
[2]
  dose léthale DL₅₀: > 10 g/kg
